Data from patent US20240092784A1, “CONDENSED HETEROCYCLIC COMPOUND” (NISSAN CHEMICAL CORPORATION, priority 2020, published 2024).

What follows are compounds tested against T1, human SPR (Homo sapiens (Human), UniProt P35270) (assay: Evaluation Example 1: Measurement of human SPR inhibitory activity (sepiapterin absorbance at 420 nm)). Conditions: 240 minutes at room temperature.
T1 sequence (P35270 whole entry): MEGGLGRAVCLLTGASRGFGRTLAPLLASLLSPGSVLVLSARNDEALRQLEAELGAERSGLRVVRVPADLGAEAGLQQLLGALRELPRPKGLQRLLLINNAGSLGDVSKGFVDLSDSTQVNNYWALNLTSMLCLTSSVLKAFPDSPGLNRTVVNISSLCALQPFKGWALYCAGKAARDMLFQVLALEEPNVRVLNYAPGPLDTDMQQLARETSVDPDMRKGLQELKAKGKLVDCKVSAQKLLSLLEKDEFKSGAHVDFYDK
Assay type: biochemical
Method: Human SPR was prepared as described below. The full-length human SPR (1-261) cDNA was purchased from Eurofins Genomics as an artificially synthesized plasmid containing a DNA sequence optimized for the E. coli expression system so that the sequence of the expressed protein after transcription and translation matches the sequence described in UniprotKB (P35270).
Linearized insert and vector were prepared by PCR using primers designed for amplification of human SPR cDNA and primers designed to contain the thrombin recognition sequence of pET28a (Novagen) and a polyhistidine tag. Cloning was performed using In-Fusion (registered trademark) HD Cloning Kit (TaKaRa) to thereby construct a human SPR expression plasmid. The resultant human SPR expression plasmid was transformed into BL21 (DE3) competent cells (INVITROGEN).
The cells were inoculated into LB medium (1% triptone, 0.5% yeast extract, 1% sodium chloride) containing […] of kanamycin, and then precultured at 37° C. overnight. The precultured cells were inoculated into TB medium (1.2% triptone, 2.4% yeast extract, 9.4% dipotassium hydrogen phosphate, 2.2% potassium dihydrogen phosphate, 0.8% glycerin) containing […] of kanamycin, and the cultured at 37° C., to thereby induce SPR expression with 0.5 mM IPTG for four hours. After the induction, the cells were collected by centrifugation at 6,000 G for 30 minutes and washed with PBS, and the washing was discarded. The washed cells were suspended in buffer solution A (20 mM MES, pH 6.5, 100 mM sodium chloride, 1 mM DTT, 5 mM imidazole). Subsequently, the cell suspension was subjected to ultrasonic treatment to thereby homogenize the cells. The cell homogenate was clarified by centrifugation at 30,000 G for 60 minutes and then filtered with a […]. The filtrate was allowed to pass through HisTrapFF 5 mL column (GE Healthcare). The resin was washed with buffer A, and then gradient elution was performed with buffer B (20 mM MES, pH 6.5, 100 mM sodium chloride, 1 mM DTT, 500 mM imidazole). Thrombin was added to a fraction containing the SPR protein, and the mixture was dialyzed in buffer A overnight, to thereby cleave the tag. After removal of the thrombin by with Benzamidine Sepharose 4 FF (GE Healthcare), the resultant product was allowed to pass through the HisTrapFF 5 mL column, to thereby remove the tag, followed by concentration with Amicon Ultra 10,000 NMWL (Merck Millipore). The concentrate was purified by gel filtration using HiLoad 16/60 Superdex 75 pg (GE Healthcare) equilibrated with buffer C (20 mM MES, pH 6.5, 100 mM sodium chloride, 1 mM DTT). The fraction containing SPR protein was concentrated and then cryopreserved at −80° C.
Human SPR inhibitory activity was measured by using a 384-well low adsorption clear plate (Greiner) with buffer D containing 100 mM Tris-HCl (pH 7.5) (Thermo Fisher Scientific) and 0.01% bovine serum albumin (Sigma). A compound was diluted with DMSO to a concentration of 1 mM, and a 1 μL aliquot of the preparation was diluted with 250 μL of buffer D. The thus-diluted compound was dispensed into the 384-well plate at […]. Thereafter, human SPR was diluted with buffer D to 200 ng/mL and then dispensed into the 384-well plate at 20 μL/well. Subsequently, 40 μL of ultrapure water containing 120 μM Sepiapterin (WuXi AppTec) and 120 μM NADPH (Nacalai) was added to each well, and mixed with a vortex mixer, to thereby initiate the reaction. The reaction mixture was incubated at room temperature for 240 minutes, and the reaction was terminated by addition of 10 μL of ultrapure water containing 2% formic acid (Nacalai). In order to determine the amount of sepiapterin after termination of the reaction, the absorbance at 420 nm was measured by applying the 384-well plate to EnSpire multimode plate reader (Perkin Elmer). The percent inhibition (%) of human SPR by the test compound was calculated by the following formula. […]
With `CCOC(=O)c1cc2n(CC(C)(C)C)c(=O)c(C(=O)NC3CC3)c(O)n2n1` [Synthesis Example 1, Ethyl 6-(cyclopropylcarbamoyl)-7-hydroxy-4-neopentyl-5-oxo-4,5-dihydropyrazolo[1,5-a]pyrimidine-2-carboxylate] the IC50 was less than 1000 nM.
Compound `CC(C)(C)Cn1c(=O)c(C(=O)NC2CC2)c(O)n2nc(C(=O)O)cc12` [Synthesis Example 2, 6-(Cyclopropylcarbamoyl)-7-hydroxy-4-neopentyl-5-oxo-4,5-dihydropyrazolo[1,5-a]pyrimidine-2-carboxylic acid] has an IC50 of less than 1000 nM.
Work on `CC(C)(C)Cn1c(=O)c(C(=O)NC2CC2)c(O)n2nc(NC(=O)OC(C)(C)C)cc12` [Synthesis Example 3, Tert-butyl (6-(cyclopropylcarbamoyl)-7-hydroxy-4-neopentyl-5-oxo-4,5-dihydropyrazolo[1,5-a]pyrimidin-2-yl)carbamate] yielded an IC50 of less than 1000 nM.
With `CCOC(=O)c1cnn2c(O)c(C(=O)NC3CC3)c(=O)n(CC(C)C)c12` [Synthesis Example 5, Ethyl 6-(cyclopropylcarbamoyl)-7-hydroxy-4-isobutyl-5-oxo-4,5-dihydropyrazolo[1,5-a]pyrimidine-3-carboxylate] the IC50 was less than 1000 nM.
In the case of `CC(C)Cn1c(=O)c(C(=O)NC2CC2)c(O)n2ncc(C=O)c12` [Synthesis Example 7, N-Cyclopropyl-3-formyl-7-hydroxy-4-isobutyl-5-oxo-4,5-dihydropyrazolo[1,5-a]pyrimidine-6-carboxamide], the IC50 is reported as less than 1000 nM.
Compound `CC(C)Cn1c(=O)c(C(=O)NC2CC2)c(O)n2ncc(/C=C/C(=O)O)c12` [Synthesis Example 9, (E)-3-(6-(Cyclopropylcarbamoyl)-7-hydroxy-4-isobutyl-5-oxo-4,5-dihydropyrazolo[1,5-a]pyrimidin-3-yl)acrylic acid] has an IC50 of less than 1000 nM.
Compound `CC(C)(C)Cn1c(=O)c(C(=O)NC2CC2)c(O)n2nc(Br)cc12` [Synthesis Example 11, 2-Bromo-N-cyclopropyl-7-hydroxy-4-neopentyl-5-oxo-4,5-dihydropyrazolo[1,5-a]pyrimidine-6-carboxamide] has an IC50 of less than 1000 nM.
For `COC(=O)c1cnc(Nc2cc3n(CC(C)(C)C)c(=O)c(C(=O)NC4CC4)c(O)n3n2)cn1` [Synthesis Example 19, Methyl 5-((6-(cyclopropylcarbamoyl)-7-hydroxy-4-neopentyl-5-oxo-4,5-dihydropyrazolo[1,5-a]pyrimidin-2-yl)amino)pyrazine-2-carboxylate], the IC50 was less than 1000 nM.
For `CC(C)(C)Cn1c(=O)c(C(=O)NC2CC2)c(O)n2nc(Nc3cnc(C(=O)O)cn3)cc12` [Synthesis Example 20, 5-((6-(Cyclopropylcarbamoyl)-7-hydroxy-4-neopentyl-5-oxo-4,5-dihydropyrazolo[1,5-a]pyrimidin-2-yl)amino)pyrazine-2-carboxylic acid], the IC50 was less than 1000 nM.
`CC(C)Cn1c(=O)c(C(=O)NC2CC2)c(O)n2nc(Br)cc12` [Synthesis Example 22, 2-Bromo-N-cyclopropyl-7-hydroxy-4-isobutyl-5-oxo-4,5-dihydropyrazolo[1,5-a]pyrimidine-6-carboxamide] was tested, and the IC50 was less than 1000 nM.
Compound `CC(C)Cn1c(=O)c(C(=O)NC2CC2)c(O)n2nc(-c3cccnc3N)cc12` [Synthesis Example 24, 2-(2-Aminopyridin-3-yl)-N-cyclopropyl-7-hydroxy-4-isobutyl-5-oxo-4,5-dihydropyrazolo[1,5-a]pyrimidine-6-carboxamide] has an IC50 of less than 1000 nM.
Work on `CC(C)(C)Cn1c(=O)c(C(=O)NC2CCC2)c(O)n2nc(Br)cc12` [Synthesis Example 25, 2-Bromo-N-cyclobutyl-7-hydroxy-4-neopentyl-5-oxo-4,5-dihydropyrazolo[1,5-a]pyrimidine-6-carboxamide] yielded an IC50 of less than 1000 nM.
With `CC(C)(C)Cn1c(=O)c(C(=O)NC2CCC2)c(O)n2nc(Nc3cnccn3)cc12` [Synthesis Example 26, N-Cyclobutyl-7-hydroxy-4-neopentyl-5-oxo-2-(pyrazin-2-ylamino)-4,5-dihydropyrazolo[1,5-a]pyrimidine-6-carboxamide] the IC50 was less than 1000 nM.
`CC1(Cn2c(=O)c(C(=O)NC3CC3)c(O)n3nc(Br)cc23)CCOCC1` [Synthesis Example 27, 2-Bromo-N-cyclopropyl-7-hydroxy-4-((4-methyltetrahydro-2H-pyran-4-yl)methyl)-5-oxo-4,5-dihydropyrazolo[1,5-a]pyrimidine-6-carboxamide] was tested, and the IC50 was less than 1000 nM.
`CC1(Cn2c(=O)c(C(=O)NC3CC3)c(O)n3nc(Nc4cnccn4)cc23)CCOCC1` [Synthesis Example 28, N-Cyclopropyl-7-hydroxy-4-((4-methyltetrahydro-2H-pyran-4-yl)methyl)-5-oxo-2-(pyrazin-2-ylamino)-4,5-dihydropyrazolo[1,5-a]pyrimidine-6-carboxamide] was tested, and the IC50 was less than 1000 nM.
`CC1(Cn2c(=O)c(C(=O)NC3CC3)c(O)n3nc(-c4cccnc4N)cc23)CCOCC1` [Synthesis Example 29, 2-(2-Aminopyridin-3-yl)-N-cyclopropyl-7-hydroxy-4-((4-methyltetrahydro-2H-pyran-4-yl)methyl)-5-oxo-4,5-dihydropyrazolo[1,5-a]pyrimidine-6-carboxamide] was tested, and the IC50 was less than 1000 nM.
Work on `CC1(Cn2c(=O)c(C(=O)NC3CCC3)c(O)n3nc(Br)cc23)CCOCC1` [Synthesis Example 30, 2-Bromo-N-cyclobutyl-7-hydroxy-4-((4-methyltetrahydro-2H-pyran-4-yl)methyl)-5-oxo-4,5-dihydropyrazolo[1,5-a]pyrimidine-6-carboxamide] yielded an IC50 of less than 1000 nM.
For `CC1(Cn2c(=O)c(C(=O)NC3CCC3)c(O)n3nc(Nc4cnccn4)cc23)CCOCC1` [Synthesis Example 31, N-Cyclobutyl-7-hydroxy-4-((4-methyltetrahydro-2H-pyran-4-yl)methyl)-5-oxo-2-(pyrazin-2-ylamino)-4,5-dihydropyrazolo[1,5-a]pyrimidine-6-carboxamide], the IC50 was less than 1000 nM.

Each compound was assayed against T1, human SPR (assay: Evaluation Example 2: Measurement of human SPR inhibitory activity (seven concentrations, sepiapterin absorbance at 420 nm)). Conditions: Evaluation Example 2, seven concentrations 0.14 nM to 100 nM, 240 minutes at room temperature, read-out: IC50.
Assay type: biochemical
In short: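 His-tagged full-length human SPR (1-261) was expressed in E. coli and the tag removed. Enzyme at 150 ng/mL in 100 mM Tris-HCl pH 7.5/0.01% BSA was mixed with compound (0.14–100 nM, seven points), 120 μM sepiapterin and 160 μM NADPH, both as added-solution concentrations. After 240 min at room temperature, remaining sepiapterin was read at 420 nm to give percent inhibition.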
`Cc1nn2c(O)c(C(=O)NC3CC3)c(=O)n(CC(C)C)c2c1/C=C/C(=O)N1CC2C(C1)C2(F)F` (stereo not drawn) [compound 608, (E)-N-Cyclopropyl-3-(3-(6,6-difluoro-3-azabicyclo[3.1.0]hexan-3-yl)-3-oxoprop-1-en-1-yl)-7-hydroxy-4-isobutyl-2-methyl-5-oxo-4,5-dihydropyrazolo[1,5-a]pyrimidine-6-carboxamide] showed an IC50 of 1.07 nM.
`CC[C@@H]1CCCN1C(=O)/C=C/c1c(C)nn2c(O)c(C(=O)NC3CC3)c(=O)n(CC(C)C)c12` [compound 610, (R,E)-N-Cyclopropyl-3-(3-(2-ethylpyrrolidin-1-yl)-3-oxoprop-1-en-1-yl)-7-hydroxy-4-isobutyl-2-methyl-5-oxo-4,5-dihydropyrazolo[1,5-a]pyrimidine-6-carboxamide] showed an IC50 of 1.64 nM.
Compound `Cc1nn2c(O)c(C(=O)NC3CC3)c(=O)n(CC(C)C)c2c1/C=C/C(=O)N1CCC[C@@H]1C(C)(C)O` [compound 611, (R,E)-N-Cyclopropyl-7-hydroxy-3-(3-(2-(2-hydroxypropan-2-yl)pyrrolidin-1-yl)-3-oxoprop-1-en-1-yl)-4-isobutyl-2-methyl-5-oxo-4,5-dihydropyrazolo[1,5-a]pyrimidine-6-carboxamide] has an IC50 of 1.22 nM.
